Measurements reported in ChEMBL document CHEMBL1201862, “PubChem BioAssay data set” (2004).
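Following 48 hours of exposure in 96-well plates, responses at five concentrations were used to interpolate endpoints linearly. The concentration for 50% growth inhibition is given as GI50.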 The source made the active and inactive calls. Rule as the data show it: active = GI50 up to about 1.1 µM and inactive = higher.

What was measured:
Assay in all cases: inhibition of tumour cell growth, NCI panel, 48 h
[1] = test system: SK-MEL-28
[2] = test system: OVCAR-5
[3] = test system: A498
[4] = test system: UACC-62
[5] = test system: U-251
[6] = test system: NCI-H226
[7] = test system: ACHN
[8] = test system: DU-145
[9] = test system: IGROV-1
[10] = test system: MCF7
[11] = test system: EKVX
[12] = test system: PC-3
[13] = test system: RXF 393
[14] = test system: A549
[15] = test system: HCT-15
[16] = test system: Malme-3M
[17] = test system: SW-620
[18] = test system: HCT-116
[19] = test system: NCI-H460
[20] = test system: SNB-19

Row | Structure (SMILES) | GI50 [1] | GI50 [2] | GI50 [3] | GI50 [4] | GI50 [5] | GI50 [6] | GI50 [7] | GI50 [8] | GI50 [9] | GI50 [10] | GI50 [11] | GI50 [12] | GI50 [13] | GI50 [14] | GI50 [15] [µM] | GI50 [16] | GI50 [17] | GI50 [18] | GI50 [19] | GI50 [20]
1 | c1ccc(COC2NCCN2Cc2ccccc2)cc1 (stereo not drawn) | > 100 µM (inactive) | > 100 µM (inactive) | 41.7 µM (inactive) | 63.2 µM (inactive) | > 100 µM (inactive) | > 100 µM (inactive) | > 100 µM (inactive) | > 100 µM (inactive) | > 100 µM (inactive) | > 100 µM (inactive) | 51.2 µM (inactive) | > 100 µM (inactive) | > 100 µM (inactive) | > 100 µM (inactive) | > 100 | > 100 µM (inactive) | > 100 µM (inactive) | > 100 µM (inactive) | > 100 µM (inactive) | > 100 µM (inactive)
2 | CCCCCCN1CCc2c(C)c(C#N)c3nc4ccccc4n3c21 | 33.7 µM (inactive) | > 100 µM (inactive) | 76.6 µM (inactive) | 30.1 µM (inactive) | 12.4 µM (inactive) | > 100 µM (inactive) | > 100 µM (inactive) | > 100 µM (inactive) | > 100 µM (inactive) | 14.5 µM (inactive) |  | 7.82 µM (inactive) | 20.7 µM (inactive) | 50.2 µM (inactive) | 27.6 | 83.2 µM (inactive) | 23.2 µM (inactive) | 16.5 µM (inactive) | 16 µM (inactive) | 80.4 µM (inactive)
3 | COc1cccc(/C=C/C2=NN(c3cccc(S(=O)(=O)O)c3)C3(C2)SCC(=O)N3c2nc3ccccc3s2)c1 (stereo not drawn) | > 100 µM (inactive) | > 100 µM (inactive) | 33 µM (inactive) | 36 µM (inactive) | 30.5 µM (inactive) | 23.8 µM (inactive) | 51.8 µM (inactive) | 30.6 µM (inactive) | 36.7 µM (inactive) | 27.6 µM (inactive) | 69.2 µM (inactive) | 37.9 µM (inactive) | 54.8 µM (inactive) | 60.3 µM (inactive) | 53.5 | 47 µM (inactive) | 47.9 µM (inactive) | 62.7 µM (inactive) | 35.7 µM (inactive) | 52.5 µM (inactive)
4 | CC(=N\c1ccncc1)/C(C)=N/c1ccncc1 | 29.1 µM (inactive) | 17 µM (inactive) | 34.4 µM (inactive) |  | 24.5 µM (inactive) | 34 µM (inactive) | 14.5 µM (inactive) | 53.6 µM (inactive) | 17.3 µM (inactive) | 16.7 µM (inactive) | 20.7 µM (inactive) | 19.3 µM (inactive) | 27.4 µM (inactive) | > 100 µM (inactive) | 14.4 | 17.6 µM (inactive) | 30.8 µM (inactive) | 29.8 µM (inactive) | 96.6 µM (inactive) | 27.5 µM (inactive)
5 | O=[N+]([O-])c1cc2oc(CSc3ccccc3)nc2cc1Cl | 35.2 µM (inactive) | 31.3 µM (inactive) | 25.5 µM (inactive) | 36.2 µM (inactive) | 23.6 µM (inactive) | 29.6 µM (inactive) | 59.7 µM (inactive) | 37.7 µM (inactive) | 33.9 µM (inactive) | 42.8 µM (inactive) | 30.7 µM (inactive) | 48 µM (inactive) | 26.4 µM (inactive) | 36.9 µM (inactive) | 19.2 | 50 µM (inactive) | 43.9 µM (inactive) | 29.4 µM (inactive) | 26.7 µM (inactive) | 45.1 µM (inactive)
6 | CC1CCC2C(C)C3C(CC4C5CC=C6CC(OC7OC(CO)C(O)C(OC8OC(CO)C(O)C(O)C8O)C7OC7OC(C)C(O)C(O)C7O)CCC6(C)C5CCC43C)N2C1 (stereo not drawn) | 7.94 µM (inactive) | 14.3 µM (inactive) | 17.5 µM (inactive) | 13.8 µM (inactive) | 16 µM (inactive) | 20.8 µM (inactive) | 8.89 µM (inactive) | 18.9 µM (inactive) | 12.4 µM (inactive) | 13.8 µM (inactive) | 9.27 µM (inactive) | 14.9 µM (inactive) | 10.2 µM (inactive) | 7.05 µM (inactive) | 17.3 | 27.7 µM (inactive) | 15.6 µM (inactive) | 11.1 µM (inactive) | 18.5 µM (inactive) | 10.5 µM (inactive)
7 | CC(=N\N=C\c1ccccn1)/C(C)=N/N=C/c1ccccn1 | > 100 µM (inactive) | > 100 µM (inactive) | > 100 µM (inactive) |  | > 100 µM (inactive) | > 100 µM (inactive) | > 100 µM (inactive) | > 100 µM (inactive) | > 100 µM (inactive) | 89.7 µM (inactive) | > 100 µM (inactive) | > 100 µM (inactive) | > 100 µM (inactive) | > 100 µM (inactive) | 60.8 | > 100 µM (inactive) | > 100 µM (inactive) | > 100 µM (inactive) | > 100 µM (inactive) | > 100 µM (inactive)
8 | C[n+]1c2ccccc2n2c3ccccc3c(NCCCN3CCOCC3)c(C#N)c21 | 3.32 µM (inactive) | 1.44 µM (inactive) | 8.87 µM (inactive) | 3.03 µM (inactive) | 1.52 µM (inactive) | 1.86 µM (inactive) | 2.61 µM (inactive) | 2.13 µM (inactive) |  | 0.564 µM (active) | 2.9 µM (inactive) | 1.31 µM (inactive) | 1.37 µM (inactive) | 3.33 µM (inactive) | 4.65 | 2.05 µM (inactive) | 0.849 µM (active) | 0.703 µM (active) | 0.684 µM (active) | 3.08 µM (inactive)
9 | CC(NC(=O)C1(N)CCCC1)C(=O)O (stereo not drawn) | > 100 µM (inactive) | > 100 µM (inactive) | > 100 µM (inactive) | > 100 µM (inactive) | > 100 µM (inactive) | > 100 µM (inactive) | > 100 µM (inactive) | > 100 µM (inactive) | > 100 µM (inactive) | > 100 µM (inactive) | > 100 µM (inactive) | > 100 µM (inactive) | > 100 µM (inactive) | > 100 µM (inactive) | > 100 | > 100 µM (inactive) | > 100 µM (inactive) | > 100 µM (inactive) |  | > 100 µM (inactive)
10 | O=C(c1ccco1)N1CCCN(C(=O)c2ccco2)C1=S | > 100 µM (inactive) | > 100 µM (inactive) | > 100 µM (inactive) | > 100 µM (inactive) | > 100 µM (inactive) | 36.4 µM (inactive) | > 100 µM (inactive) | > 100 µM (inactive) | 41.6 µM (inactive) | 74.8 µM (inactive) | 2.32 µM (inactive) | 24.4 µM (inactive) | 39.6 µM (inactive) |  | > 100 | 33 µM (inactive) | > 100 µM (inactive) | > 100 µM (inactive) | > 100 µM (inactive) | > 100 µM (inactive)
11 | Nc1ncnc2c1ccn2C/C=C/CO | > 100 µM (inactive) | > 100 µM (inactive) | > 100 µM (inactive) | > 100 µM (inactive) | > 100 µM (inactive) |  | > 100 µM (inactive) | > 100 µM (inactive) | > 100 µM (inactive) | > 100 µM (inactive) | > 100 µM (inactive) | > 100 µM (inactive) | > 100 µM (inactive) | > 100 µM (inactive) | > 100 | > 100 µM (inactive) | > 100 µM (inactive) | > 100 µM (inactive) | > 100 µM (inactive) | > 100 µM (inactive)
12 | O=C(c1ccc(Cl)cc1)N(C(=S)OCCOc1ccccc1)c1ccccc1 | 15.8 µM (inactive) | 17 µM (inactive) | 14.9 µM (inactive) | 16.3 µM (inactive) | 16.2 µM (inactive) |  | 20.3 µM (inactive) | 17.3 µM (inactive) | 16.9 µM (inactive) | 16.1 µM (inactive) | 20.1 µM (inactive) | 21.1 µM (inactive) | 18.6 µM (inactive) | 16.3 µM (inactive) | 19.3 | 29 µM (inactive) | 19.1 µM (inactive) | 16.2 µM (inactive) | 23.2 µM (inactive) | 19.2 µM (inactive)
13 | NC(=O)NC(=O)c1cccc(C(=O)NC(N)=O)n1 | > 100 µM (inactive) | > 100 µM (inactive) | > 100 µM (inactive) | > 100 µM (inactive) | > 100 µM (inactive) | > 100 µM (inactive) | > 100 µM (inactive) | > 100 µM (inactive) |  | > 100 µM (inactive) | > 100 µM (inactive) | > 100 µM (inactive) | > 100 µM (inactive) | > 100 µM (inactive) | > 100 | > 100 µM (inactive) | > 100 µM (inactive) | > 100 µM (inactive) | > 100 µM (inactive) | > 100 µM (inactive)
14 | CN(C)C(=O)N1N[C@H](c2ccccc2)[C@@H]1c1ccccc1 | > 100 µM (inactive) |  | > 100 µM (inactive) | > 100 µM (inactive) | > 100 µM (inactive) | > 100 µM (inactive) | > 100 µM (inactive) | > 100 µM (inactive) | > 100 µM (inactive) | > 100 µM (inactive) | > 100 µM (inactive) | 48 µM (inactive) | 13.5 µM (inactive) | > 100 µM (inactive) | > 100 | > 100 µM (inactive) | > 100 µM (inactive) | > 100 µM (inactive) |  | > 100 µM (inactive)
15 | Cc1c(N/C=C(\C#N)C(=O)c2ccc(Cl)cc2)c(=O)n(-c2ccccc2)n1C | > 100 µM (inactive) | > 100 µM (inactive) | 48.8 µM (inactive) | 59.3 µM (inactive) | > 100 µM (inactive) | 54 µM (inactive) |  | > 100 µM (inactive) | 96.8 µM (inactive) | 62.1 µM (inactive) | > 100 µM (inactive) | > 100 µM (inactive) | > 100 µM (inactive) | > 100 µM (inactive) | > 100 | > 100 µM (inactive) | 90.4 µM (inactive) | 80.7 µM (inactive) | > 100 µM (inactive) | > 100 µM (inactive)
